Target: T1, human calcium receptor (Homo sapiens, UniProt P41180)
T1 construct: expressed in transfected cells; host or cells: HEK 293 4.0-7
T1 sequence (P41180 20-1078): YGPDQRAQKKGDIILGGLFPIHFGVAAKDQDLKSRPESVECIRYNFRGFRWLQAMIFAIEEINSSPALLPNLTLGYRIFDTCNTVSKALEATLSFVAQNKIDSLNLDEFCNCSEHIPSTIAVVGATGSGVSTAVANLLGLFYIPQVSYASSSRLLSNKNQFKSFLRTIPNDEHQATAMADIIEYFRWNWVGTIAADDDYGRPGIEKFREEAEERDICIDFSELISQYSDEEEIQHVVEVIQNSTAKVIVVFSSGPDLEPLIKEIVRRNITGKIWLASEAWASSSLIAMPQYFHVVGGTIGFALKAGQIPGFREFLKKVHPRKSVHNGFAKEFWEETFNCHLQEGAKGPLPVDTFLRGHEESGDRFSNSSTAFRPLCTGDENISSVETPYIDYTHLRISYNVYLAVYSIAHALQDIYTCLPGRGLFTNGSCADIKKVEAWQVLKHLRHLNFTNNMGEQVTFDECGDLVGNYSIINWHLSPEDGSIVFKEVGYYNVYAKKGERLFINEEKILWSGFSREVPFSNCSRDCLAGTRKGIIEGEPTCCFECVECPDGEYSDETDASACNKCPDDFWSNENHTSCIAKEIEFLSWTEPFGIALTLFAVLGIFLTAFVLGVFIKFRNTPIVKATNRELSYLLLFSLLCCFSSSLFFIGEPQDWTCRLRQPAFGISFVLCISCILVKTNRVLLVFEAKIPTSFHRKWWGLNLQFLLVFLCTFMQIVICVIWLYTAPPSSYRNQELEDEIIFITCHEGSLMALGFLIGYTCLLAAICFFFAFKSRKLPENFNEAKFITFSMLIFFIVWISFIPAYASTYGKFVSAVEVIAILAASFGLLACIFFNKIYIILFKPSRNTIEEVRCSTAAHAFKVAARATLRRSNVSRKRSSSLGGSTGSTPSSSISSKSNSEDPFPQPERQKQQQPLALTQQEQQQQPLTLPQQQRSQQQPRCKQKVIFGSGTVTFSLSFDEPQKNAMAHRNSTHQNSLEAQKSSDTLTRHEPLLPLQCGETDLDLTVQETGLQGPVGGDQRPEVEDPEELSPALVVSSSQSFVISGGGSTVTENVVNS
Test: Calcium Receptor Inhibitor Assay (block of intracellular Ca2+ increase elicited by extracellular Ca2+, fluo-3)
Format: cell-based
Set-up: key: Compounds having an IC50 greater than 30 uM were considered to be inactive; Compounds having an IC50 greater than 30 uM were considered to be inactive
Conditions: HEK 293 4.0-7 cells stably expressing the human calcium receptor; at the concentrations used
Description: (I) Calcium Receptor Inhibitor Assay
Calcilytic activity was measured by determining the IC50 of the test compound for blocking increases of intracellular Ca^2+ elicited by extracellular Ca^2+ in HEK 293 4.0-7 cells stably expressing the human calcium receptor. HEK 293 4.0-7 cells were constructed as described by Rogers et al., J. Bone Miner. Res. 10 Suppl. 1:3483, 1995 (hereby incorporated by reference herein). Intracellular Ca^2+ increases were elicited by increasing extracellular Ca^2+ from 1 to 1.75 mM. Intracellular Ca^2+ was measured using fluo-3, a fluorescent calcium indicator.
The procedure was as follows:
1. Cells were maintained in T-150 flasks in selection media (DMEM supplemented with 10% fetal bovine serum and 200 ug/mL hygromycin B), under 5% CO2:95% air at 37° C. and were grown up to 90% confluency.
2. The medium was decanted and the cell monolayer was washed twice with phosphate-buffered saline (PBS) kept at 37° C. After the second wash, 6 mL of 0.02% EDTA in PBS was added and incubated for 4 minutes at 37° C. Following the incubation, cells were dispersed by gentle agitation.
3. Cells from 2 or 3 flasks were pooled and pelleted (100×g). The cellular pellet was resuspended in 10-15 mL of SPF-PCB+ and pelleted again by centrifugation. This washing was done twice.
Sulfate- and phosphate-free parathyroid cell buffer (SPF-PCB) contains 20 mM Na-Hepes, pH 7.4, 126 mM NaCl, 5 mM KCl, and 1 mM MgCl2. SPF-PCB was made up and stored at 4° C. On the day of use, SPF-PCB was supplemented with 1 mg/mL of D-glucose and 1 mM CaCl2 and then split into two fractions. To one fraction, bovine serum albumin (BSA; fraction V, ICN) was added at 5 mg/mL (SPF-PCB+). This buffer was used for washing, loading and maintaining the cells. The BSA-free fraction was used for diluting the cells in the cuvette for measurements of fluorescence.
4. The pellet was resuspended in 10 mL of SPF-PCB+ containing 2.2 uM fluo-3 (Molecular Probes) and incubated at room temperature for 35 minutes.
5. Following the incubation period, the cells were pelleted by centrifugation. The resulting pellet was washed with SPF-PCB+. After this washing, cells were resuspended in SPF-PCB+ at a density of 1-2×10^6 cells/mL.
6. For recording fluorescent signals, 300 uL of cell suspension were diluted in 1.2 mL of SPF buffer containing 1 mM CaCl2 and 1 mg/mL of D-glucose. Measurements of fluorescence were performed at 37° C. with constant stirring using a spectrofluorimeter. Excitation and emission wavelengths were measured at 485 and 535 nm, respectively. To calibrate fluorescence signals, digitonin (5 mg/mL in ethanol) was added to obtain Fmax, and the apparent Fmin was determined by adding Tris-EGTA (2.5 M Tris-Base, 0.3 M EGTA). The concentration of intracellular calcium was calculated using the following equation:
Intracellular calcium=(F−Fmin/Fmax)×Kd; where Kd=400 nM.
7. To determine the potential calcilytic activity of test compounds, cells were incubated with test compound (or vehicle as a control) for 90 seconds before increasing the concentration of extracellular Ca^2+ from 1 to 2 mM. Calcilytic compounds were detected by their ability to block, in a concentration-dependent manner, increases in the concentration of intracellular Ca^2+ elicited by extracellular Ca^2+.
In general, those compounds having lower IC50 values in the Calcium Receptor Inhibitor Assay are more preferred compounds. […] The present examples were tested except for Examples 11, 20, 28, 44 and 107.

IC50 for blocking increases of intracellular Ca2+ elicited by extracellular Ca2+ (calcilytic activity)	SMILES
inactive	Cc1nc(-c2ccccc2O)n(CCc2ccccc2)c(=O)c1-c1ccc(CN)s1 [Example 215, 5-[5-(Aminomethyl)-2-thienyl]-2-(2-hydroxyphenyl)-6-methyl-3-(2-phenylethyl)-4(3H)-pyrimidinone]
inactive	CNCc1ccc(-c2c(C)nc(-c3ccccc3O)n(CCc3ccccc3)c2=O)s1 [Example 216, 2-(2-hydroxyphenyl)-6-methyl-5-{5-[(methylamino)methyl]-2-thienyl}-3-(2-phenylethyl)-4(3H)-pyrimidinone]

The next lines start with the compound.

SMILES	IC50 for blocking increases of intracellular Ca2+ elicited by extracellular Ca2+ (calcilytic activity)
CCc1c(N2CCCCC2)nc(-c2cccc(F)c2O)n(CCc2cccc(F)c2)c1=O [Example 27, 5-Ethyl-2-(3-fluoro-2-hydroxyphenyl)-3-[2-(3-fluorophenyl)ethyl]-6-(1-Piperidinyl)-4(3H)-pyrimidinone]	inactive
CCc1c(CCC2CCCCC2)nc(-c2cccc(F)c2O)n(CCc2ccccc2F)c1=O [Example 46]	inactive
COc1ccccc1-c1nc(C)c(-c2cccs2)c(=O)n1CCc1ccccc1 [Example 100, 6-Methyl-2-[2-(methyloxy)phenyl]-3-(2-phenylethyl)-5-(2-thienyl)-4(3H)-pyrimidinone]	inactive
Cc1nc(-c2ccccc2O)n(CCc2ccccc2)c(=O)c1N [Example 123, 5-Amino-2-(2-hydroxyphenyl)-6-methyl-3-(2-phenylethyl)-4(3H)-pyrimidinone]	inactive
Cc1nc(-c2ccccc2O)n(CCc2ccccc2)c(=O)c1NC(=O)C(C)C [Example 127, N-[2-(2-Hydroxyphenyl)-4-methyl-6-oxo-1-(2-phenylethyl)-1,6-dihydro-5-pyrimidinyl]-2-methylpropanamide]	inactive
Cc1nc(-c2ccccc2O)n(CCc2ccccc2)c(=O)c1-c1ccc(-c2nnn[nH]2)s1 [Example 214, 2-(2-hydroxyphenyl)-6-methyl-3-(2-phenylethyl)-5-[5-(1H-tetrazol-5-yl)-2-thienyl]-4(3H)-pyrimidinone]	inactive

From patent US20090137557A1, “Calcilytic Compounds” (priority 2005, published 2009)
